Here are results for five compounds from ChEMBL document CHEMBL5608223, “Chemical Probes to Investigate Central Nervous System Disorders: Design, Synthesis and Mechanism of Action of a Potent Human Serine Racemase Inhibitor” (ACS Med Chem Lett, 2024).

A word on the IC50: it is the concentration needed to halve the response being measured.

Experiment [1] deals with T1, Serine racemase (Homo sapiens, UniProt Q9GZT4).
T1 sequence (Q9GZT4 whole entry): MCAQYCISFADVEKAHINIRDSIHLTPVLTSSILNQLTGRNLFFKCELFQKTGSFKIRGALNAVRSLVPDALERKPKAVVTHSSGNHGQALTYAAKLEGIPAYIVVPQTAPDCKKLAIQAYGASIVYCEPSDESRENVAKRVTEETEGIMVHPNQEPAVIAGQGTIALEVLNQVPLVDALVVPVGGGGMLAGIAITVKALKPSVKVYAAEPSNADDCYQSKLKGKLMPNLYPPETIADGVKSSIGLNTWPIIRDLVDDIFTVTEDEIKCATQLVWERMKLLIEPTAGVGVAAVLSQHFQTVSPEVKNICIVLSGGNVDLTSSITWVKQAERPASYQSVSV
Nature of the experiment: Inhibition of human SR extracted from Escherichia coli assessed as beta-eliminase activity using L-Ser as substrate by spectrophotometer assay.

For experiment [2], the target named is T2, Serine racemase (Mus musculus, UniProt Q9QZX7).
T2 sequence (Q9QZX7 whole entry): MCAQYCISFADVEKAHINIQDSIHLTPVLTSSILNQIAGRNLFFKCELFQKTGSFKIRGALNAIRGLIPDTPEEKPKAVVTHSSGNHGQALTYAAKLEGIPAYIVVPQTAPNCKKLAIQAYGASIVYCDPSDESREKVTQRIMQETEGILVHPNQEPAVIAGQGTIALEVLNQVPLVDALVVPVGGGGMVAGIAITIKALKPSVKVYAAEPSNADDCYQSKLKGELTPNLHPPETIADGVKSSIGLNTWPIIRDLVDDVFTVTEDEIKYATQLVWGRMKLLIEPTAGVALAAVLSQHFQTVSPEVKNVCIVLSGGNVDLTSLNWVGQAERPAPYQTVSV
Nature of the experiment: Inhibition of mouse SR using L-Serine as substrate incubated for 2 hrs in presence of PLP by spectrophotometer assay.

The target of experiment [3] is T3, Phosphoserine aminotransferase (Homo sapiens, UniProt Q9Y617).
T3 sequence (Q9Y617 whole entry): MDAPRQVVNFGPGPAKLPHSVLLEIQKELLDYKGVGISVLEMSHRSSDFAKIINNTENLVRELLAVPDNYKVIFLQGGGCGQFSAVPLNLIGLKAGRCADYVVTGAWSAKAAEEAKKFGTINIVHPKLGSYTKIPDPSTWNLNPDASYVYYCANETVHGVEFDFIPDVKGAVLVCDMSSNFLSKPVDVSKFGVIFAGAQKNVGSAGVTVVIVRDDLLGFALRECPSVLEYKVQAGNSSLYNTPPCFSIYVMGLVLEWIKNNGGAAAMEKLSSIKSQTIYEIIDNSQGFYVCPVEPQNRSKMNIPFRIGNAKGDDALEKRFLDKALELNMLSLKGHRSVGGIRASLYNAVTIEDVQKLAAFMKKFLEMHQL
The experiment in a line: Inhibition of human PSAT extracted from Escherichia coli BL21(DE3) cells preincubated with compound followed by L-OPS addition in presence of PLP.

In experiment [4] the target is T4, Serine racemase (Homo sapiens) (UniProt Q9GZT4).
T4 sequence (whole entry): T1 sequence (Q9GZT4 whole entry)
Nature of the experiment: Inhibition of recombinant hexa-His tagged human SR extracted from Escherichia coli BL21 CodonPlusR (DE3)-RIL cells at 2 mM preincubated with compound followed by L-serine addition and measured after 10 mins.

Calls of active or inactive are those of the source. The rule behind the calls is not given here.

As for `O=C(O)[C@H]1C[C@H]1C(=O)O`, the IC50 on Serine racemase [1] came out at 3 mM. As for `N[C@H]1CONC1=O` [LEVCYCLOSERINE], the half-maximal inhibitory concentration (IC50) on Serine racemase [2] turned out to be 2.27 mM. As to `NOC(Cc1ccc(-c2ccccc2)cc1)C(=O)O` (stereo not given), the IC50 in experiment [3] was determined as 2200 nM.

Turning to `O=C(O)CC(=O)O` [MALONIC ACID], the IC50 at Serine racemase [1] was determined as 0.071 mM. As to `N[C@@H](Cc1ccccc1)C(=O)O`, the outcome in experiment [4] was inactive.
